The values below come from paper PMC10671052, “Naphthyl-Substituted Indole and Pyrrole Carboxylic Acids as Effective Antibiotic Potentiators—Inhibitors of Bacterial Cystathionine γ-Lyase” (International Journal of Molecular Sciences, 2023).

Data set [1] has as its target T1, human cystathionine-γ-lyase (hCSE) (Homo sapiens, UniProt P32929).
T1 construct: His6-TEV (N, cleaved yes); host or cells: E. coli
Put plainly: IC50 assay: inhibition of H2S production by purified hCSE, WSP5 fluorescent probe. Type of data set: biochemical. As to the method: (§1) Fluorescence spectrophotometry-based inhibitory activity toward purified bCSE and hCSE was measured in a 96-well nonbinding black plate (Greiner, Kremsmunster, Austria) at 100 μL of the reaction mixture per well. bCSE and hCSE (0.02 μM) were preincubated in a thermoshaker (Biosan, Riga, Latvia) (30 °C, 300 rpm) for 40 min in 50 mM sodium phosphate buffer (pH 8.0), supplemented with 10 μM pyridoxal 5′-phosphate (Sigma-Aldrich, St. Louis, MO, USA), 0.1% of Tween 20 (Sigma-Aldrich, St. Louis, MO, USA), and 1.2 μM Washington State Probe-5 (Cayman Chemical, Ann Arbor, MI, USA) (excitation: 500 nm, emission: 530 nm) at different concentrations of a tested inhibitor. The reaction was initiated by the addition of 100 μM L-cysteine (TCI, Chennai, Tamil Nadu, India) in 50 mM sodium phosphate buffer pH 8.0 to the reaction mixture, and the enzymatic activity was monitored for 12 h using a CLARIOstar Plus instrument (BMG LABTECH GmbH, Ortenberg, Germany). The 100 µM L-cysteine concentration used in the experiments corresponds to the maximal reported intracellular concentration in bacteria. The data were normalized to the positive and negative controls, and IC50 values were obtained by fitting to a four-parameter sigmoidal curve (inhibitor vs. response, variable slope model) in GraphPad Prism 8 software (GraphPad by Dotmatics, Boston, MA, USA). Each experiment was conducted with 2–3 technical replicates. IC50 values were means of at least two independent experiments.
(§2) For the production of S. aureus cystathionine-γ-lyase (bCSE) and of human cystathionine-γ-lyase (hCSE), plasmids pSUMO:saCSE (Addgene # 54336) and pNIC28-Bsa4 (Addgene # 42365) were employed. Cultivation of a competent E. coli cell strain (Thermo Fisher Scientific, Waltham, MA, USA), transformed with a target plasmid, was carried out on a selective solid medium with kanamycin. Bacterial cells harboring the plasmid vector were cultured at 37 °C and 180 rpm until OD600 = 0.65. Then, isopropyl β-D1-thiogalactopyranoside (IPTG) was added to a final concentration of 1 mM. To obtain bCSE, the cells were cultured for 3.5 h at 37 °C; to obtain hCSE, the cells were cultured for 18–20 h at 25 °C. After centrifugation, cells were resuspended in a buffer composed of 50 mM Tris–HCl, at a pH of 8.0, and 300 mM sodium chloride. After that, the cells were lysed by ultrasonication, with a pulse duration of 15 s and an interval between pulses of 15 s. The amplitude of the ultrasonic vibrations was 50% of the maximum. After lysis, samples were centrifuged for 15 min (20,000× g at 4 ℃). The pH of the supernatant obtained after the centrifugation was adjusted to 7.5 by the addition of a 1 M solution of Tris–OH. Then, the test sample was subjected to filtration through a polyethersulfone membrane with a pore diameter of 0.22 μm.

Data set [2] deals with S. aureus cystathionine-γ-lyase (bCSE) (Staphylococcus aureus, UniProt A0A0H3K724). Put plainly: IC50 assay: inhibition of H2S production by purified bCSE, WSP5 fluorescent probe. It counts as biochemical. As to the method:
as §1, §2

Data set [3] deals with HEK293 cells. Put plainly: HEK293 cytotoxicity assay (Alamar Blue). Type of data set: cell-based. To be noted: HEK293, 72 h. As to the method: The HEK 293 cell line was obtained from the European Collection of Authenticated Cell Cultures (ECACC, cat. # 85120602, Salisbury, UK). The cells were grown in a monolayer culture in Dulbecco’s Modified Eagle’s Medium (DMEM) (PanEco, Moscow, Russia), supplemented with 2 mM L-glutamine, 1% of a penicillin/streptomycin solution (Capricorn Scientific, Ebsdorfergrund, Germany), and 10% of heat inactivated fetal bovine serum (HyClone, Cytiva, Marlborough, MA, USA) in a humidified atmosphere containing 5% of CO2 at 37 °C (Binder, Germany). For the assay, HEK 293 cells were seeded in a 96-well plate (Corning, NY, USA) in 100 μL of the complete culture medium, at a final density of 2 × 10^3 cells/well, and were cultured for 24 h for proper attachment. Subsequently, the medium was removed, and the cells were exposed to a tested inhibitor at different concentrations for 72 h in 100 μL of the fresh complete culture medium. The sensitivity of the cells to the compounds was detected using the vital dye Alamar Blue (Invitrogen, San Diego, CA, USA). The Alamar Blue assay was performed according to the procedure described by O’Brien et al.. After incubation with the tested bCSE inhibitors, 10 μL of the Alamar Blue reagent was added into each well, the cell culture plates were returned to the humidified incubator, and the fluorescence was read after 3 h. The plates were exposed to an excitation light of 545 nm wavelength, and emission at 600 nm was measured on the CLARIOstar Plus (BMG LABTECH GmbH, Ortenberg, Germany). To determine half-maximal cytotoxic concentration (CC50), a four-parameter sigmoidal curve model (GraphPad Prism 8 software) was fitted to the measurement data.

Data set [4] concerns A. baumannii GIMC5509:ABT-52Ts19. Put plainly: MIC of antibiotics alone and with potentiators, clinical isolate.
Description: Overnight (ON) culture of a specific strain was grown in the liquid Luria–Bertani nutrient medium (LB broth, BD Difco) for 18 h at 37 °C, with agitation at 180 rpm using an Innova 44R orbital shaker (Eppendorf, Hamburg, Germany). After a certain period, 50 µL of the ON culture was transferred into 5 mL of the LB medium and grown for 3 h at 37 °C with agitation. Growth in the liquid medium was assessed by means of turbidity of the suspension, measured using a Densi-La-Meter II densitometer (Erba Lachema s.r.o., Brno, Czech Republic). Then, the bacterial suspension was diluted to the concentration 10^6 cells/mL with sterile LB and used as a seed culture [38, 39].
For the assessment of MICs, 96-well microtiter plates were utilized at 200 µL of a medium per well. Each well was filled with 100 µL of the seed culture. After that, 10 µL of a solution of each tested synthetic compound (potentiators) was added into each experimental well. Finally, 90 µL of twofold serial dilutions of an antibiotic in a sterile LB was added into individual wells.
As a positive control, we set up wells with 100 µL of the bacterial culture and 100 µL of the sterile LB medium. […] Negative-control wells contained 200 µL of the sterile medium. The plates were incubated in a thermostat for 18–20 h at 37 °C. The bacterial growth was assessed as optical density at 600 nm on a CLARIOstar microplate reader (BMG LABTECH GmbH, Ortenberg, Germany)).
Data set [5] has as its target bCSE. More on the design: method as in PMID 34112687. Particulars: NL2 is from ref 13; read-out: experimental inhibition constant; cited from earlier work.
Data set [6] relates to P. aeruginosa GIMC5016:PA1840/36/2015. Put plainly: MIC of antibiotics alone and with potentiators, clinical isolate.
Data set [7] is described as follows: in vitro. It counts as in vitro ADME. To be noted: human, plasma. As to the method: Plasma protein binding was assessed using RED device inserts with built-in cellulose acetate dialysis membranes (molecular weight cutoff: 8 kDa). The final concentration of the test compound in human plasma was 5 μM. The samples were prepared by placing 300 μL of human plasma into the plasma compartment of the RED device and 500 μL of phosphate-buffered saline (pH 7.4) into the buffer compartment. The RED device was fixed to a shaker, placed in a CO2 (5%) incubator, and incubated for 6 h at 37 °C. After an equilibration step, 100 μL aliquots were taken from each compartment; 100 μL of plasma was added to the buffer compartment aliquot and 100 μL of buffer was added to the plasma compartment aliquot. After mixing, 600 μL of acetonitrile containing an internal standard was added. […] All compounds were tested in duplicate. Fraction bound fb was determined via the following equation: fb (%) = [1 − (Cb/Cp)] × 100, where Cb is the concentration of an analyte in the buffer compartment (μM), and Cp is the concentration of the analyte in the plasma compartment (μM).

Data set [8] is described as follows: Caco-2 cell permeability. It counts as in vitro ADME. Particulars: human. As to the method: The culture medium consisted of high-glucose DMEM containing 10% of fetal bovine serum, 4 mM L-glutamine, 1% of a solution of nonessential amino acids (PanEco, Moscow, Russia), 100 U/mL penicillin, and 100 μg/mL streptomycin. The cells were maintained for 21 days at 37 °C and 5% CO2. The medium was refreshed every 3 days. A Lucifer yellow rejection assay was applied to determine cell monolayer integrity. […] The Lucifer yellow rejection value was calculated using the equation: LY % rejection = 100*(1−FIb/FIa), where FIb is the fluorescence in the basolateral compartment and FIa is the fluorescence in the apical compartment. […] Both apical-to-basolateral (AB) and basolateral-to-apical (BA) transport were assessed. For apical-to-basolateral transport, 0.3 mL of a test compound solution was added to the apical side, and 0.8 mL of HBSS with 0.5% of BSA was added to the basolateral side. For basolateral-to-apical transport, 0.8 mL of a test compound solution was added to the basolateral side and 0.3 mL of HBSS with 0.5% of BSA was added to the apical side. The Caco-2 cell monolayers were then incubated for 2 h at 37 °C. The pH values of the apical and basolateral compartments were 7.4. […] The supernatant was transferred to a vial and analyzed by liquid chromatography coupled with tandem MS (LC–MS/MS). The AB (or BA) apparent permeability coefficients (Papp, 10^–6 cm/s) were calculated according to the following formula [40, 41]: Papp = (V × ∆C)/(∆t × A × C0), where V is the volume of the receiver compartment (cm^3), C0 is the initial drug concentration in the donor compartment (μM), ∆C is the concentration in the receiver compartment (μM), ∆t is the incubation time (s), and A is the surface area of the cell monolayer (cm^2). An efflux ratio was calculated by dividing Papp (BA) by Papp (AB). All compounds were tested in duplicate.
(In general: Caco-2 cells form a polarised layer with tight junctions and transporters.)

Where [9] appears, read: purified hCSE 0.02 μM, 100 μM L-cysteine, WSP5 probe, mean ± SD; read-out: IC50 biochemical assay hCSE.
[10] abbreviates: IC50 (uM), bCSE enzymatic IC50, rounded, repeated in Table S13.
Setting [11] is: IC50 (uM), bCSE enzymatic IC50, rounded, repeated in Table S14.
The mark [12] stands for this setting: IC50 biochemical assay bCSE, purified bCSE 0.02 μM, 100 μM L-cysteine, WSP5 probe, mean ± SD.
[13] abbreviates: A. baumannii GIMC5509:ABT-52Ts19, potentiator 50 µg/mL.
[14] abbreviates: P. aeruginosa GIMC5016:PA1840/36/2015, potentiator 50 µg/mL.

Like-named read-outs stand apart in the source and are kept apart here.

T1 sequence (P32929 whole entry): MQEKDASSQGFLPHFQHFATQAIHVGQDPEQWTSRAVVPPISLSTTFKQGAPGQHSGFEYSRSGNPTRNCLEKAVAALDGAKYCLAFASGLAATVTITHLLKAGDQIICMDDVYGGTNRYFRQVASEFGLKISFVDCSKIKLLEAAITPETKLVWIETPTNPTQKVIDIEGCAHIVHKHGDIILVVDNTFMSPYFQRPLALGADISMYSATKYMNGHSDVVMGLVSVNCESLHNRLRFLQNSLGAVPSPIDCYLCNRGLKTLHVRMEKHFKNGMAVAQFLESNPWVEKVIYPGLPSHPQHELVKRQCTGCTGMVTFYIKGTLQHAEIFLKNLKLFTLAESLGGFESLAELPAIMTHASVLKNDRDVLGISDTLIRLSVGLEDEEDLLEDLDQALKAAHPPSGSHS
Sequence of S. aureus cystathionine-γ-lyase (bCSE) (A0A0H3K724 entry or part of it): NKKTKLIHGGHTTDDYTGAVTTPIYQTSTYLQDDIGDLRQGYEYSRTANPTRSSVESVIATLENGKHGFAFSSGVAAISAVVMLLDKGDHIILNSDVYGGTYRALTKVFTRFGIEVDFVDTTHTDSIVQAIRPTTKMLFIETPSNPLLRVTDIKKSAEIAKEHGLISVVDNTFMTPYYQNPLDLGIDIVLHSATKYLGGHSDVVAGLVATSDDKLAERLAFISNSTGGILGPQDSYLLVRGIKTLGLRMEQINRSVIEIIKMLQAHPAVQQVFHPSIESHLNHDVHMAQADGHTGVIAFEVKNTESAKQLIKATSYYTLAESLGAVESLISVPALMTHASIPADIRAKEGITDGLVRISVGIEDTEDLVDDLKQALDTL

Regarding `O=C([O-])c1cn(Cc2cccc3ccccc23)c2ccccc12.[Na+]` [Compound 1c], in data set [1], the “activity toward hCSE (in words)” value is recorded as “did not show noticeable activity”. Besides, the IC50 in data set [1] (read-out: IC50 biochemical assay hCSE; purified hCSE 0.02 μM, 100 μM L-cysteine, WSP5 probe, mean ± SD) is > 500 µM. For the same compound, the “activity toward bCSE (in words)” value in data set [2] is recorded as “did not show noticeable activity”. In data set [3], the CC50 came to 308 ± 75.5 µM.

With `O=C(O)c1ccc2ccn(Cc3cccc4ccccc34)c2c1` [Compound 4a], the IC50 was > 500 µM in data set [1] (setting [9]); 138 µM in data set [2] (setting [10]); 138 µM in data set [2] (setting [11]); 138 µM in data set [2] (IC50 (uM), bCSE enzymatic IC50, rounded, repeated in Table S15); 138 ± 9 µM in data set [2] (setting [12]). For the same compound, half-maximal cytotoxicity in data set [3] (CC50) was put at 392 ± 21.8 µM.

For the compound `Cc1oc(Cn2ccc3ccc(Br)cc32)cc1C(=O)O` [NL2, 5-((6-bromo-1H-indol-1-yl)methyl)-2-methylfuran-3-carboxylic acid], the “MIC of Tacillin in combination with potentiator” value in data set [4] (A. baumannii GIMC5509:ABT-52Ts19, piperacillin + tazobactam, potentiator 50 µg/mL) came to 128 µg/mL; in data set [6] (P. aeruginosa GIMC5016:PA1840/36/2015, piperacillin + tazobactam, potentiator 50 µg/mL), 32 µg/mL. The “MIC of Cefepim in combination with potentiator” value in data set [4] (setting [13]) was 128 µg/mL; in data set [6] (setting [14]), 64 µg/mL. The “MIC of Meropenem in combination with potentiator” value in data set [4] (setting [13]) was 32 µg/mL; in data set [6] (setting [14]), 8 µg/mL. Also, the IC50 in data set [1] (setting [9]) is > 500 µM; in data set [2] (setting [10]) it was 144 µM; in data set [2] (setting [11]), 144 µM; in data set [2] (setting [12]), 144 ± 9 µM. In data set [5], the Ki was 1.8 µM. Also, the “MIC of Gentamicin in combination with potentiator” value in data set [6] (setting [14]) was > 512 µg/mL.

Regarding `CC(C)NCC(O)COc1cccc2ccccc12` (stereo not drawn) [Propranolol, reference compound], in data set [7] (6 h, 5 μM, pH 7.4), the Fraction bound fb was found to be 85.8%. In addition, the fraction unbound at 6 h, 5 μM in data set [7] (pH 7.4, Fraction bound fb) is 0.142. In addition, the efflux ratio at 2 h, 10 μM in data set [8] (Caco-2, Papp (BA) / Papp (AB)) came out at 1.04. In addition, in data set [8] (Caco-2, 10 μM, 2 h, pH 7.4), the Papp A→B at 2 h, 10 μM was determined as 30.2 ± 2.9 ×10⁻⁶ cm/s and the Papp B→A at 2 h, 10 μM was 31.6 ± 1.1 ×10⁻⁶ cm/s.

By IC50 is commonly meant the point on the concentration scale where inhibition reaches its midpoint. As usually defined, the CC50 is the concentration giving 50% cytotoxicity. A high value points to lower toxicity to the cells. A word on the fraction unbound: it is free concentration divided by total concentration. A lower fraction unbound goes with little free substance. As usually defined, the efflux ratio is the permeability from basolateral to apical divided by that in the opposite direction, in the common usage. By Papp A→B is commonly meant the apparent permeability from the apical to the basolateral side of a cell layer. High values mean ready permeation, low ones poor permeation. For orientation: Papp B→A means the apparent permeability from the basolateral to the apical side of a cell layer.
